Measurements from patent publication US6906095B2, “Indolylalkylidenehydrazine-carboximidamide derivatives as 5-hydroxytryptamine-6 ligands” (Wyeth, priority 2002, dated 2005).

Each compound was assayed against T1, human cloned 5-HT6 receptors (Homo sapiens, UniProt P50406) (assay: 5-HT6 binding affinity, [3H]-LSD displacement in membranes of Hela cells). Conditions: not given.
T1 construct: expressed in transfected cells; host or cells: Hela cells
T1 sequence (P50406 whole entry): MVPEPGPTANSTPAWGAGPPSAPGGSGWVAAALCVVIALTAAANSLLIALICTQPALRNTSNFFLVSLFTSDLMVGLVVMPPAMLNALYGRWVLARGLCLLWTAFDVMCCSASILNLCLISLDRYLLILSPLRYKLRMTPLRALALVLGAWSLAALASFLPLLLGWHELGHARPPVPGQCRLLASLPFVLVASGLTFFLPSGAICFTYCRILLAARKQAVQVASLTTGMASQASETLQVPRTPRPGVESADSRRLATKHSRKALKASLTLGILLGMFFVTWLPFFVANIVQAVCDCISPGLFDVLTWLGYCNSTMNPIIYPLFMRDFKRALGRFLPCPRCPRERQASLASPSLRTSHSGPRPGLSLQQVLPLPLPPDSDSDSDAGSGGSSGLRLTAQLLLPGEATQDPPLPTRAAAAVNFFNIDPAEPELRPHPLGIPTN

| Structure (SMILES) | Ki [nM] | inhibition at 1 µM [%] |
| --- | --- | --- |
| CCCCCNC(=N)NN=C(C)c1cn(S(=O)(=O)c2ccccc2)c2ccccc12 [Example 123, N-Pentyl-2-{1-[1-(phenylsulfonyl)-1H-indol-3-yl]ethylidene}-hydrazinecarboximidamide] | 12 | – |
| N=C(N)NN=C(c1cn(S(=O)(=O)c2ccccc2)c2ccccc12)C1CCCCC1 [Example 2, 2-{Cyclohexyl[1-(phenylsulfonyl)-1H-indol-3-yl]methylidene}-hydrazinecarboximidamide] | – | 69.2 |
| CC(=NNC(=N)N)c1cn(S(=O)(=O)c2cn(C)cn2)c2ccccc12 [Example 47, 2-(1-{1-[(1-methyl-1H-imidazol-4-yl)sulfonyl]-1H-indol-3-yl}ethylidene)hydrazinecarboximidamide] | 46 | – |
| CC(=NNC(=N)N)c1cn(S(=O)(=O)c2ccc(F)cc2)c2ccccc12 [Example 44, 2-(1-{1-[(4-fluorophenyl)sulfonyl]-1H-indol-3-yl}ethylidene)hydrazinecarboximidamide] | 33 | – |
| CCC(=NNC(=N)N)c1cn(S(=O)(=O)c2ccc(N)cc2)c2ccc(F)cc12 [Example 119, 2-(1-{1-[(4-aminophenyl)sulfonyl]-5-fluoro-1H-indol-3-yl}propylidene)hydrazinecarboximidamide] | 2 | – |
| CC(=NNC(=N)N)c1cn(S(=O)(=O)c2ccccc2)c2ccccc12 [Example 9, 2-{1-[1-(phenylsulfonyl)-1H-indol-3-yl]ethylidene}hydrazinecarboximidamide] | 7 | – |

Same assay, conditions: test compound dose 10 nM; [3H]-LSD 3.0 nM

| Structure (SMILES) | inhibition at 0.01 µM [%] |
| --- | --- |
| CS(=O)(=O)n1cc(C(=NNC(=N)N)C2CC2)c2ccc(F)cc21 [Example 102, 2-{cyclopropyl[6-fluoro-1-(methylsulfonyl)-1H-indol-3-yl]methylidene}hydrazinecarboximidamide] | 41.1 |

Same assay, conditions: test compound dose 100 nM; [3H]-LSD 3.0 nM

| Structure (SMILES) | inhibition at 0.1 µM [%] | % Inhibition [%] |
| --- | --- | --- |
| CC(=NNC(=N)NCCO)c1cn(S(=O)(=O)c2ccccc2)c2ccccc12 [Example 127, N-(2-hydroxyethyl)-2-{1-[1-(phenylsulfonyl)-1H-indol-3-yl]ethylidene}hydrazinecarboximidamide] | 83.3 | – |
| CC(=NNC(=N)N)c1cn(S(=O)(=O)c2ccccc2)c2ccc(Cl)cc12 [Example 84, 2-{1-[5-chloro-1-(phenylsulfonyl)-1H-indol-3-yl]ethylidene}hydrazinecarboximidamide] | 81.7 | – |
| CCCCCNC(=N)NN=C(C)c1cn(S(=O)(=O)c2ccccc2)c2ccccc12 [Example 123, N-Pentyl-2-{1-[1-(phenylsulfonyl)-1H-indol-3-yl]ethylidene}-hydrazinecarboximidamide] | 34 | – |
| COc1ccc(S(=O)(=O)n2cc(C(=NNC(=N)N)C3CC3)c3cc(Cl)ccc32)cc1OC [Example 89, 2-[{5-chloro-1-[(3,4-dimethoxyphenyl)sulfonyl]-1H-indol-3-yl}(cyclopropyl)-methylidene]hydrazinecarboximidamide] | 71.9 | – |
| CC(=NNC(=N)N)c1cn(S(=O)(=O)c2cn(C)cn2)c2ccccc12 [Example 47, 2-(1-{1-[(1-methyl-1H-imidazol-4-yl)sulfonyl]-1H-indol-3-yl}ethylidene)hydrazinecarboximidamide] | 81.1 | – |
| CC(=NNC(=N)N)c1cn(S(=O)(=O)c2ccc(F)cc2)c2ccccc12 [Example 44, 2-(1-{1-[(4-fluorophenyl)sulfonyl]-1H-indol-3-yl}ethylidene)hydrazinecarboximidamide] | 75.5 | – |
| CC(=NNC(=N)N)c1cn(S(=O)(=O)c2cc(Br)c(Br)s2)c2ccccc12 [Example 39, 2-(1-{1-[(4,5-dibromothien-2-yl)sulfonyl]-1H-indol-3-yl}ethylidene)hydrazinecarboximidamide] | 62.1 | – |
| CSc1nccc(-c2ccc(S(=O)(=O)n3cc(C(C)=NNC(=N)N)c4ccccc43)s2)n1 [Example 49, 2-{1-[1-({5-[2-(methylthio)pyrimidin-4-yl]thien-2-yl}sulfonyl)-1H-indol-3-yl]ethylidene}-hydrazinecarboximidamide] | 33 | – |
| CC(=NNC(=N)N)c1cn(S(=O)(=O)c2cc(Br)c(Cl)s2)c2ccccc12 [Example 28, 2-(1-{1-[(4-bromo-5-chlorothien-2-yl)sulfonyl]-1H-indol-3-yl}ethylidene)hydrazinecarboximidamide] | 58.3 | – |
| CC(=NNC(=N)N)c1cn(C(=O)Oc2ccccc2)c2ccccc12 [Example 128, phenyl 3-(1-{2-[amino(imino)methyl]hydrazono}ethyl)-1H-indole-1-carboxylate] | 23.9 | – |
| CCCCS(=O)(=O)n1cc(C(C)=NNC(=N)N)c2cc(Cl)ccc21 [Example 75, 2-{1-[1-(butylsulfonyl)-5-chloro-1H-indol-3-yl]ethylidene}hydrazinecarboximidamide] | 84.6 | – |
| CC(=NNC(=N)N)c1cn(S(=O)(=O)c2ccc(-c3cc(C(F)(F)F)n(C)n3)s2)c2ccccc12 [Example 45, 2-{1-[1-({5-[1-methyl-5-(trifluoromethyl)-1H-pyrazol-3-yl]thien-2-yl}sulfony)-1H-indol-3-yl]ethylidene}hydrazinecarboximidamide] | – | 23.5 |
| CC(=NNC(=N)N)c1cn(S(=O)(=O)c2cc(Cl)ccc2Cl)c2ccccc12 [Example 40, 2-(1-{1-[(2,5-dichlorophenyl)sulfonyl]-1H-indol-3-yl}ethylidene)hydrazinecarboximidamide] | 33.3 | – |
| CC(=NNC(=N)NCc1ccccn1)c1cn(S(=O)(=O)c2ccccc2)c2ccccc12 [Example 126, 2-{1-[1-(phenylsulfonyl)-1H-indol-3-yl]ethylidene}-N-(pyridin-2-ylmethyl)hydrazinecarboximidamide] | 37.7 | – |
| CC(=NNC(=N)N)c1cn(S(=O)(=O)c2sc3ccc(Cl)cc3c2C)c2ccccc12 [Example 35, 2-(1-{1-[(5-chloro-3-methyl-1-benzothien-2-yl)sulfonyl]-1H-indol-3-yl}ethylidene)hydrazinecarboximidamide] | 39.1 | – |
| CCCCS(=O)(=O)n1cc(C(C)=NNC(=N)N)c2ccc(F)cc21 [Example 103, 2-{1-[1-(butylsulfonyl)-6-fluoro-1H-indol-3-yl]ethylidene}hydrazinecarboximidamide] | 69.4 | – |

Same assay, conditions: test compound dose 1000 nM; [3H]-LSD 3.0 nM; read-out: % Inhibition

| Structure (SMILES) | inhibition at 1 µM [%] |
| --- | --- |
| CCCCC(=NNC(=N)N)c1c(-c2ccc(Cl)cc2)n(S(C)(=O)=O)c2ccccc12 [Example 91, 2-{1-[2-(4-chlorophenyl)-1-(methylsulfonyl)-1H-indol-3-yl]pentylidene}hydrazinecarboximidamide] | 9 |
| Cc1ccc(S(=O)(=O)n2cc(C=NNC3=NCCCN3)c3ccccc32)cc1 [Example 1, 1-[(4-methylphenyl)sulfonyl]-1H-indole-3-carboxaldehyde 1,4,5,6-tetrahydropyrimidin-2-ylhydrazone] | 56 |
| CC(C)C(=NNC(=N)N)c1cn(S(=O)(=O)c2ccccc2)c2ccccc12 [Example 5, 2-{2-methyl-1-[1-(phenylsulfonyl)-1H-indol-3-yl]propylidene}hydrazinecarboximidamide] | 91.5 |
| CCCCC(=NNC(=N)N)c1cn(S(=O)(=O)c2ccc3ccccc3c2)c2cc(F)ccc12 [Example 110, 2-{1-[6-fluoro-1-(2-naphthylsulfonyl)-1H-indol-3-yl]pentylidene}hydrazinecarboximidamide] | 60.2 |
| N=C(N)NN=Cc1cn(S(=O)(=O)c2ccccc2)c2ccc(OCc3ccccc3)cc12 [Example 21, 2-{[5-(benzyloxy)-1-(phenylsulfonyl)-1H-indol-3-yl]methylidene}hydrazinecarboximidamide] | 57.4 |
| CCCCC(=NNC(=N)N)c1cn(S(=O)(=O)c2ccc(OC)cc2)c2ccccc12 [Example 62, 2-(1-{1-[(4-methoxyphenyl)sulfonyl]-1H-indol-3-yl}pentylidene)hydrazinecarboximidamide] | 68.3 |
| Cc1ccc(S(=O)(=O)n2cc(C=NN(C)C3=NCCN3)c3ccccc32)cc1 [Example 4, 1-[(4-methylphenyl)sulfonyl]-1H-indole-3-carbaldehyde 4,5-dihydro-1H-imidazol-2-yl(methyl)hydrazone] | 71.9 |
| CC(=NNC(=N)N)c1c(-c2ccc(F)c(F)c2)n(S(=O)(=O)c2ccccc2)c2ccccc12 [Example 13, 2-{1-[2-(3,4-difluorophenyl)-1-(phenylsulfonyl)-1H-indol-3-yl]ethylidene}hydrazinecarboximidamide] | 86 |
| N=C(N)N/N=C(\C=C\c1ccccc1Cl)c1cn(S(=O)(=O)c2ccccc2)c2ccccc12 [Example 8, 2-{(E,2E)-3-(2-chlorophenyl)-1-[1-(phenylsulfonyl)-1H-indol-3-yl]prop-2-enylidene}-hydrazinecarboximidamide] | 95.2 |
| N=C(N)NN=C(c1cn(S(=O)(=O)c2ccc3ccccc3c2)c2ccc(Cl)cc12)C1CC1 [Example 83, 2-[[5-chloro-1-(2-naphthylsulfonyl)-1H-indol-3-yl](cyclopropyl)methylidene]hydrazinecarboximidamide] | 89.3 |
| CCCCC(=NNC(=N)N)c1cn(S(C)(=O)=O)c2cc(F)ccc12 [Example 101, 2-{1-[6-fluoro-1-(methylsulfonyl)-1H-indol-3-yl]pentylidene}hydrazinecarboximidamide] | 77.4 |
| CC(=NNC(=N)N)c1cn(S(=O)(=O)c2ccccc2)c2ccccc12 [Example 9, 2-{1-[1-(phenylsulfonyl)-1H-indol-3-yl]ethylidene}hydrazinecarboximidamide] | 99.5 |
